Assays:
[1] = test system: Glucagon-like peptide-1 (GLP-1); test: Total GLP-1 secretion at end of oral glucose tolerance test; type: in vivo; details: C57/6N mice, 100 mg/kg oral; total GLP-1 at end of OGTT vs. control animals
Experimental: The effect of test compounds on the secretion of Glucagon-like peptide-1 (GLP-1) in C57/6N mice was determined at the end of the oral glucose tolerance test. Animals were anesthetized with pentobarbital and blood collected by heart puncture in potassium EDTA-coated microtainer tubes containing 10 μl/ml DPP-IV inhibitor and 500 KIU/ml Aprotinin. Total GLP-1 was measured using Mouse/Rat Total Glucagon-like peptide-1 assay kit (Meso Scale Discovery) and MSD SECTOR2400 Imager according to the manufacturer's instructions.
(§1) Oral glucose tolerance is expressed as a percent reduction in glucose excursion of animals receiving test compound vs. control animals. Incretin activity (i.e. incretin secretion) is expressed as an x-fold increase in GLP-1 production in animals receiving test compound vs. control animals.

[2] = Oral glucose tolerance test in C57BL/6N mice; type: in vivo; details: 100 mg/kg oral, 3 g/kg glucose, percent reduction in glucose excursion (AUC 0-120 min) vs. control animals
Experimental: Male mice (8-10 week old C57BL/6N, Harlan Laboratories, Inc.) were maintained on 18% Protein Rodent diet (Teklad Global Diets, Harlan Laboratories, Inc). Overnight fasted mice were randomized into groups (n=8-10) to receive the test compounds at a dose of 100 mg/kg or the vehicle (1% CMC, 2% TWEEN 80). Compounds were delivered orally via gavage. Blood glucose levels were measured by glucometer before administration of compounds and at 30 minutes post compound. The mice were then dosed orally with 3 g/kg glucose. Blood glucose measurements were taken 20, 40, 60, 90 and 120 minutes after glucose administration. Glucose levels were plotted against time and the incremental area under the curve (AUC) of the glucose excursion was determined from T=0 to T=120 min.
as §1

human GPR131 = target: T1, human GPR131 (Homo sapiens, UniProt Q8TDU6); test: Stimulation of cAMP in stable cell line expressing human GPR131 (FRET cAMP kit); type: cell-based; details: 0.5 h; 1.1 μM compound, relative to maximal stimulatory activity of lithocholic acid at 3.3 μM; 30 minutes at 37° C.; read-out: Percent Activity @ 1.1 μM (of 3.3 uM LCA) (%)
T1 construct: expressed in transfected cells
T1 sequence (Q8TDU6 1-330): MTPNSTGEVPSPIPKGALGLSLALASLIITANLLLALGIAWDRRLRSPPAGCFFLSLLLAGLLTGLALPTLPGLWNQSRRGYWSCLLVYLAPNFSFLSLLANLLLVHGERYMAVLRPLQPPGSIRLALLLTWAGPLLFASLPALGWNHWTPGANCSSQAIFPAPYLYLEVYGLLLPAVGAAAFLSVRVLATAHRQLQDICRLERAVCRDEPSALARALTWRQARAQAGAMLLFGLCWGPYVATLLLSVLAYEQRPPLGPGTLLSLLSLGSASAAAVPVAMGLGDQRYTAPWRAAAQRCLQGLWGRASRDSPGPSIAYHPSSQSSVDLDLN
How it was run: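 Stable human GPR131 cells in DMEM/F12 with 1 mM IBMX treated with compound for 30 min at 37° C. Intracellular cAMP measured by competitive FRET immunoassay (665/620 nm ratio). Values given as % activity at 1.1 μM compound relative to maximal lithocholic acid stimulation at 3.3 μM.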

Peptide YY (PYY) = test: Total PYY secretion at end of OGTT in DIO mice; type: in vivo; details: C57BL/6J DIO mice, 100 mg/kg oral, 2 hours post glucose dosing
Experimental: (§2) 18 week old C57BL/6J diet induced obese (DIO) male mice were maintained on a 60 kcal % fat diet. Mice fasted for 9 hours were randomized into groups (n=9-10) to receive vehicle (1% CMC, 2% TWEEN 80) or test compound at a dose of 100 mg/kg. Compounds were delivered orally via gavage, and 30 minutes later mice were dosed orally with 2 g/kg glucose.
(§3) The effect of GPR131 agonists on the secretion of total Glucagon-like peptide-2 (GLP-2) and total Peptide YY (PYY) was determined at the end of the oral glucose tolerance test (2 hours post glucose dosing). Animals were anesthetized with pentobarbital and blood collected by heart puncture in potassium EDTA-coated microtainer tubes containing 10 μl/ml DPP-IV inhibitor and 500 KIU/ml Aprotinin. Total GLP-2 was measured using Total Glucagon-like peptide-2 assay kit and Total PYY was measured using Total Peptide YY assay kit.

[3] = test system: Glucagon-like peptide-2 (GLP-2); test: Total GLP-2 secretion at end of OGTT in DIO mice; type: in vivo; details: C57BL/6J DIO mice, 100 mg/kg oral; total GLP-2, 2 hours post glucose dosing
Experimental: as §2, §3

activation at 1.1 µM (human GPR131) [%]	Compound	Increase in GLP-1 (Fold) [1] [Fold]	Glucose Reduction (%) [2] [%]	Increase in PYY (Fold) (Peptide YY (PYY))	Increase in GLP-2 (Fold) [3] [Fold]
93	Cc1nn(C)cc1CN(C)C(=O)c1cnc(SCc2ccn(C)n2)n1-c1ccc(F)cc1 [Compound 633, N-((1,3-Dimethyl-1H-pyrazol-4-yl)methyl)-1-(4-fluorophenyl)-N-methyl-2-(((1-methyl-1H-pyrazol-3-yl)methyl)thio)-1H-imidazole-5-carboxamide]	–	–	–	–
91	Cc1nn(C)cc1CN(C)C(=O)c1cnc(SCc2ncn(C)n2)n1-c1ccc(F)cc1 [Compound 634, N-((1,3-Dimethyl-1H-pyrazol-4-yl)methyl)-1-(4-fluorophenyl)-N-methyl-2-(((1-methyl-1H-1,2,4-triazol-3-yl)methyl)thio)-1H-imidazole-5-carboxamide]	–	–	–	–
98	Cc1nn(C)cc1CN(C)C(=O)c1cnc(SCc2ncccn2)n1-c1ccc(F)cc1 [Compound 635, N-((1,3-Dimethyl-1H-pyrazol-4-yl)methyl)-1-(4-fluorophenyl)-N-methyl-2-((pyrimidin-2-ylmethyl)thio)-1H-imidazole-5-carboxamide]	–	–	–	–

The next lines start with the compound.

Compound	activation at 1.1 µM (human GPR131) [%]	Increase in GLP-1 (Fold) [1] [Fold]	Glucose Reduction (%) [2] [%]	Increase in PYY (Fold) (Peptide YY (PYY))	Increase in GLP-2 (Fold) [3] [Fold]
Cc1cnccc1CN(C)C(=O)c1cnc(SCc2c(F)ccc(F)c2F)n1-c1ccc(F)cc1 [Compound 502, 1-(4-Fluorophenyl)-N-methyl-N-((3-methylpyridin-4-yl)methyl)-2-((2,3,6-trifluorobenzyl)thio)-1H-imidazole-5-carboxamide]	100	2.2	27.7	–	–
Cc1nn(C)cc1CN(C)C(=O)c1cnc(SCc2c(F)ccc(F)c2F)n1-c1ccc(F)cc1 [Compound 505, N-((1,3-Dimethyl-1H-pyrazol-4-yl)methyl)-1-(4-fluorophenyl)-N-methyl-2-((2,3,6-trifluorobenzyl)thio)-1H-imidazole-5-carboxamide]	99	1.9	27.4	–	–
Cc1cc(CN(C)C(=O)c2cnc(SCc3c(F)ccc(F)c3F)n2-c2ccc(F)cc2)ccn1 [Compound 577, 1-(4-Fluorophenyl)-N-methyl-N-((2-methylpyridin-4-yl)methyl)-2-((2,3,6-trifluorobenzyl)thio)-1H-imidazole-5-carboxamide]	100	4.1	24.4	2.2	2.5
Cc1nn(C)cc1CN(C)C(=O)c1cnc(SCc2cc(C(C)C)no2)n1-c1ccc(F)cc1 [Compound 631, N-((1,3-Dimethyl-1H-pyrazol-4-yl)methyl)-1-(4-fluorophenyl)-2-(((3-isopropylisoxazol-5-yl)methyl)thio)-N-methyl-1H-imidazole-5-carboxamide]	97	–	–	–	–
Cc1nn(C)cc1CN(C)C(=O)c1cnc(SCc2cc3ccccn3n2)n1-c1ccc(F)cc1 [Compound 632, N-((1,3-Dimethyl-1H-pyrazol-4-yl)methyl)-1-(4-fluorophenyl)-N-methyl-2-((pyrazolo[1,5-a]pyridin-2-ylmethyl)thio)-1H-imidazole-5-carboxamide]	100	–	–	–	–
Cc1csc(CSc2ncc(C(=O)N(C)Cc3cn(C)nc3C)n2-c2ccc(F)cc2)n1 [Compound 636, N-((1,3-Dimethyl-1H-pyrazol-4-yl)methyl)-1-(4-fluorophenyl)-N-methyl-2-(((4-methylthiazol-2-yl)methyl)thio)-1H-imidazole-5-carboxamide]	98	–	–	–	–
CCOC(=O)CSc1ncc(C(=O)N(C)Cc2cn(C)nc2C)n1-c1ccc(F)cc1 [Compound 637, Ethyl 2-((5-(((1,3-dimethyl-1H-pyrazol-4-yl)methyl)(methyl)carbamoyl)-1-(4-fluorophenyl)-1H-imidazol-2-yl)thio)acetate]	94	–	–	–	–

Reference: patent publication US8703776B2 (Cymabay Therapeutics, Inc., priority 2011, dated 2014)
